Where “and” joins values, the source holds several entries; their conditions need not be identical. Equal values may be shown once. Inconclusive results and toxic doses are left out. Rule as the data show it: active = T/C of 150% or more; inactive = T/C below 125%.
System: L1210 leukemia ip in BDF1 mice, survival T/C
Assay: NCI In Vivo Anticancer Drug Screen. Data for tumor model L1210 Leukemia (intraperitoneal) in B6D2F1 (BDF1) mice
Details: endpoint: mean survival time, higher = longer survival
Summary of the method: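 Tumor cells were implanted, animals were treated, and survival was followed. The result divides the treated measurement by the vehicle-control measurement.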

[1] = dose: 100.0 mg/kg/injection, schedule: Q04DX003 (ip), vehicle: Klucel (hydroxypropylcellulose) (HPC)
[2] = dose: 100.0 mg/kg/injection, schedule: Q04DX003 (ip), vehicle: saline
[3] = dose: 200.0 mg/kg/injection, schedule: Q04DX003 (ip), vehicle: saline
[4] = dose: 400.0 mg/kg/injection, schedule: Q04DX003 (ip), vehicle: Klucel (hydroxypropylcellulose) (HPC)
[5] = dose: 400.0 mg/kg/injection, schedule: Q04DX003 (ip), vehicle: saline
[6] = dose: 200.0 mg/kg/injection, schedule: Q04DX003 (ip), vehicle: Klucel (hydroxypropylcellulose) (HPC)
[7] = dose: 100.0 mg/kg/injection, schedule: Q01DX009 (ip), vehicle: saline
[8] = dose: 200.0 mg/kg/injection, schedule: Q01DX009 (ip), vehicle: saline
[9] = dose: 400.0 mg/kg/injection, schedule: Q01DX009 (ip), vehicle: saline

Measured: T/C

Cc1[nH]c(=S)[nH]c(=O)c1CC(O)c1ccccc1 (centres undefined)
inactive: [1] 92 % of control | [2] 92 % of control | [3] 94 % of control | [4] 87 % of control | [5] 89 % of control

C=CC1CC(=O)N1C (centres undefined)
inactive: [2] 100 % of control | [3] 110 % of control | [5] 112 % of control

Cc1nc(C#N)c(N)o1
inactive: dose: 5.0 mg/kg/injection, schedule: Q01DX001 (ip), vehicle: saline 103 % of control | dose: 10.0 mg/kg/injection, schedule: Q01DX001 (ip), vehicle: saline 103 % of control | dose: 20.0 mg/kg/injection, schedule: Q01DX001 (ip), vehicle: saline 98 % of control

O=C(NCCCl)Nc1ccc(C(=O)O)c(O)c1
inactive: dose: 80.0 mg/kg/injection, schedule: Q04DX002 (ip), vehicle: Klucel (hydroxypropylcellulose) (HPC) 98 % of control | dose: 160.0 mg/kg/injection, schedule: Q04DX002 (ip), vehicle: Klucel (hydroxypropylcellulose) (HPC) 88 % of control | dose: 320.0 mg/kg/injection, schedule: Q04DX002 (ip), vehicle: Klucel (hydroxypropylcellulose) (HPC) 91 % of control

COc1ccc(/C(C#N)=C/c2ccncc2)cc1OC
inactive: dose: 100.0 mg/kg/injection, schedule: Q01DX001 (ip), vehicle: other 105 % of control | dose: 200.0 mg/kg/injection, schedule: Q01DX001 (ip), vehicle: other 94 % of control | dose: 400.0 mg/kg/injection, schedule: Q01DX001 (ip), vehicle: other 97 % of control

N#Cc1cccc(-c2nc3ncnc(N)c3[nH]2)c1
inactive: [1] 94 % of control | [6] 96 % of control | [4] 92 % of control

CC(=O)c1cccc2c(C(C)=O)cccc12
inactive: dose: 50.0 mg/kg/injection, schedule: Q01DX001 (ip), vehicle: carboxymethylcellulose (CMC) 105 % of control | dose: 100.0 mg/kg/injection, schedule: Q01DX001 (ip), vehicle: carboxymethylcellulose (CMC) 103 % of control | dose: 200.0 mg/kg/injection, schedule: Q01DX001 (ip), vehicle: carboxymethylcellulose (CMC) 111 % of control | dose: 400.0 mg/kg/injection, schedule: Q01DX001 (ip), vehicle: carboxymethylcellulose (CMC) 103 % of control

CC(C)=CCO
inactive: [7] 96 % of control | [8] 93 % of control | [9] 88 % of control

CC1(C)CC(=O)C2=C(C1)Nc1ccccc1NC2c1ccc([N+](=O)[O-])cc1 (centres undefined)
inactive: dose: 100.0 mg/kg/injection, schedule: Q04DX002 (ip), vehicle: Klucel (hydroxypropylcellulose) (HPC) 103 % of control | dose: 200.0 mg/kg/injection, schedule: Q04DX002 (ip), vehicle: Klucel (hydroxypropylcellulose) (HPC) 109 % of control | dose: 400.0 mg/kg/injection, schedule: Q04DX002 (ip), vehicle: Klucel (hydroxypropylcellulose) (HPC) 106 % of control

O=C(Cl)/C=C/c1c(Cl)cccc1Cl
inactive: dose: 75.0 mg/kg/injection, schedule: Q01DX009 (ip), vehicle: Klucel (hydroxypropylcellulose) (HPC) 102 % of control | [1] 103 % of control | dose: 150.0 mg/kg/injection, schedule: Q01DX009 (ip), vehicle: Klucel (hydroxypropylcellulose) (HPC) 100 % of control | [6] 92 % of control | dose: 300.0 mg/kg/injection, schedule: Q01DX009 (ip), vehicle: Klucel (hydroxypropylcellulose) (HPC) 93 % of control

CCCCCCC(=O)/C=C/C=C/c1ccccc1
inactive: dose: 100.0 mg/kg/injection, schedule: Q01DX009 (ip), vehicle: Klucel (hydroxypropylcellulose) (HPC) 97 % of control | [1] 98 % of control | dose: 200.0 mg/kg/injection, schedule: Q01DX009 (ip), vehicle: Klucel (hydroxypropylcellulose) (HPC) 91 % of control | [6] 98 % of control | dose: 400.0 mg/kg/injection, schedule: Q01DX009 (ip), vehicle: Klucel (hydroxypropylcellulose) (HPC) 100 % of control | [4] 94 % of control

O=c1[nH]c(=O)n(C2OC(CO)C(O)C2O)cc1O (centres undefined)
inactive: dose: 100.0 mg/kg/injection, schedule: Q01DX001 (ip), vehicle: water 92 % of control | dose: 200.0 mg/kg/injection, schedule: Q01DX001 (ip), vehicle: water 94 % of control | dose: 400.0 mg/kg/injection, schedule: Q01DX001 (ip), vehicle: water 103 % of control

CC(=O)CCc1c(C)nc(Nc2nc3cc(C)c(C)cc3[nH]2)nc1C
inactive: [1] 93 % of control | [6] 96 % of control | [4] 93 % of control

CC(=O)C(C)(O)C(C)(C)C (centres undefined)
inactive: [7] 88 % of control | [8] 90 % of control | [9] 98 % of control

NNC(=O)Cc1ccc(Cl)c2ccccc12
inactive: [1] 104 % of control | [6] 91 % of control

COB(C1CCCCC1)C1CCCCC1
inactive: [1] 91 % of control | [6] 98 % of control | [4] 100 % of control

Cc1cccc(NC(=O)CCc2ccc(N3C(N)=NC(N)=NC3(C)C)cc2)c1
inactive: dose: 3.13 mg/kg/injection, schedule: Q01DX009 (ip), vehicle: saline 102 % of control | dose: 6.25 mg/kg/injection, schedule: Q01DX009 (ip), vehicle: saline 94 % of control | dose: 12.5 mg/kg/injection, schedule: Q01DX009 (ip), vehicle: saline 97 % of control | dose: 25.0 mg/kg/injection, schedule: Q01DX009 (ip), vehicle: saline 96 % of control | dose: 50.0 mg/kg/injection, schedule: Q01DX009 (ip), vehicle: saline 103 % of control

Cc1cc[c]([Hg][c]2ccc(C)cc2)cc1
inactive: [1] 97 % of control | [6] 103 % of control | [4] 94 % of control

CN=C(NC)c1ccc(NC(=O)/C=C\c2ccc(/C=C/C(=O)Nc3ccc(C(=NC)NC)cc3)cc2)cc1
inactive: dose: 7.5 mg/kg/injection, schedule: Q01DX Z (oral), vehicle: saline 95 % of control | dose: 15.0 mg/kg/injection, schedule: Q01DX Z (oral), vehicle: saline 91 % of control | dose: 30.0 mg/kg/injection, schedule: Q01DX Z (oral), vehicle: saline 95 % of control | dose: 60.0 mg/kg/injection, schedule: Q01DX Z (oral), vehicle: saline 103 % of control

Clc1ccc(/C=N/N=C(N/N=C/c2ccc(Cl)cc2Cl)N/N=C/c2ccc(Cl)cc2Cl)c(Cl)c1
inactive: dose: 15.0 mg/kg/injection, schedule: Q01DX Z (ip), vehicle: carboxymethylcellulose (CMC) 88 % of control | dose: 30.0 mg/kg/injection, schedule: Q01DX Z (ip), vehicle: carboxymethylcellulose (CMC) 93 % of control | dose: 60.0 mg/kg/injection, schedule: Q01DX Z (ip), vehicle: carboxymethylcellulose (CMC) 95 % of control and 88 % of control | dose: 120.0 mg/kg/injection, schedule: Q01DX Z (ip), vehicle: carboxymethylcellulose (CMC) 87 % of control and 88 % of control | dose: 240.0 mg/kg/injection, schedule: Q01DX Z (ip), vehicle: carboxymethylcellulose (CMC) 93 % of control | dose: 240.0 mg/kg/injection, schedule: Q01DX Z (oral), vehicle: carboxymethylcellulose (CMC) 102 % of control | dose: 480.0 mg/kg/injection, schedule: Q01DX Z (ip), vehicle: carboxymethylcellulose (CMC) 87 % of control | dose: 480.0 mg/kg/injection, schedule: Q01DX Z (oral), vehicle: carboxymethylcellulose (CMC) 104 % of control | dose: 960.0 mg/kg/injection, schedule: Q01DX Z (oral), vehicle: carboxymethylcellulose (CMC) 105 % of control | dose: 1920.0 mg/kg/injection, schedule: Q01DX Z (oral), vehicle: carboxymethylcellulose (CMC) 102 % of control

COc1cc(OC)c(N=Nc2sc(N)nc2C)cc1Cl
inactive: dose: 75.0 mg/kg/injection, schedule: Q01DX001 (ip), vehicle: saline 92 % of control | dose: 150.0 mg/kg/injection, schedule: Q01DX001 (ip), vehicle: saline 97 % of control | dose: 300.0 mg/kg/injection, schedule: Q01DX001 (ip), vehicle: saline 94 % of control

Clc1ccc(-c2oc(-c3ccc(Cl)cc3)c3c2CC=CC3)cc1
inactive: dose: 100.0 mg/kg/injection, schedule: Q04DX003 (ip), vehicle: gum acacia 93 % of control | dose: 200.0 mg/kg/injection, schedule: Q04DX003 (ip), vehicle: gum acacia 106 % of control | dose: 400.0 mg/kg/injection, schedule: Q04DX003 (ip), vehicle: gum acacia 97 % of control

CCOC(=O)c1ccc(NC(=S)NC(=O)/C=C/c2ccccc2)cc1
inactive: dose: 100.0 mg/kg/injection, schedule: Q01DX009 (ip), vehicle: saline with Tween-80 92 % of control | dose: 100.0 mg/kg/injection, schedule: Q04DX003 (ip), vehicle: saline with Tween-80 91 % of control | dose: 200.0 mg/kg/injection, schedule: Q01DX009 (ip), vehicle: saline with Tween-80 100 % of control | dose: 200.0 mg/kg/injection, schedule: Q04DX003 (ip), vehicle: saline with Tween-80 94 % of control | dose: 400.0 mg/kg/injection, schedule: Q01DX009 (ip), vehicle: saline with Tween-80 97 % of control | dose: 400.0 mg/kg/injection, schedule: Q04DX003 (ip), vehicle: saline with Tween-80 101 % of control
